# Measured values from patent publication US20240309003A1, “HETEROCYCLIC COMPOUNDS AS TRIGGERING RECEPTOR EXPRESSED ON MYELOID CELLS 2 AGONISTS AND METHODS OF USE” (Vigil Neuroscience, Inc., priority 2021, published 2024).
# Target: T1, human TREM2 (Homo sapiens, UniProt Q9NZC2)
# T1 construct: expressed in transfected cells; host or cells: HEK293T
# Assay: TREM2 agonist potency by cellular phosphorylation of Syk (AlphaLisa) in HEK293T-hTREM2 cells
# Type: cell-based
# Details: HEK293 cells expressing human TREM2 and DAP12, Table D
# Procedure, shortened: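 Agonist EC50 from a variable-slope four-parameter fit of % activation, based on AlphaLisa phospho-Syk levels in lysates. Cells: HEK293T-hTREM2 (with DAP12), treated 45 min at room temperature with compound in assay buffer.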
# T1 sequence (Q9NZC2 19-230): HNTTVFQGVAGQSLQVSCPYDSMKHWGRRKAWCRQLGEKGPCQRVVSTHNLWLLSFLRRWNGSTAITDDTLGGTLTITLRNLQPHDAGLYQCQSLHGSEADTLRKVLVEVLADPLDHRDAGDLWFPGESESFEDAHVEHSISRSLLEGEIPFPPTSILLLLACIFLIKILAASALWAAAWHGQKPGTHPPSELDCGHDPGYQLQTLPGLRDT
# T1 sequence (O43914 22-113 partner): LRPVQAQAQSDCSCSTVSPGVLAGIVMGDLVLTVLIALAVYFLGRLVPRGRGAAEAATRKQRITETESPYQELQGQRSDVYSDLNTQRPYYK
row,EC50 [nM],Compound
1,< 50,"Cc1ccc2c(-c3ccc(Cl)c(F)c3F)nc([C@H]3CCO[C@@H](c4cnn(C5CC5)c4)C3)nc2n1 [Example 218, 4-(4-chloro-2,3-difluorophenyl)-2-((2R,4S)-2-(1-cyclopropyl-1H-pyrazol-4-yl)tetrahydro-2H-pyran-4-yl)-7-methylpyrido[2,3-d]pyrimidine]"
2,500 to 3000,"Cc1cc([C@@H]2C[C@H](c3cc4nc(C)c(C)cc4c(-c4ccc(Cl)cc4F)n3)CCO2)ccn1 [Example 225, 5-(4-chloro-2-fluorophenyl)-2,3-dimethyl-7-((2S,4R)-2-(2-methylpyridin-4-yl)tetrahydro-2H-pyran-4-yl)-1,6-naphthyridine]"
3,50 to 500,"Cc1cnc2c(-c3ccc(F)cc3F)nc(N3C[C@@H](C)O[C@@H](c4cnn(C5CC5)c4)C3)cc2n1 [Example 209, (2S,6R)-2-(1-cyclopropyl-1H-pyrazol-4-yl)-4-(5-(2,4-difluorophenyl)-2-methylpyrido[3,4-b]pyrazin-7-yl)-6-methylmorpholine]"
4,< 50,"Cc1nc2nc([C@H]3CCO[C@@H](c4cnn(C5CC5)c4)C3)cc(-c3ccc(Cl)cc3F)c2nc1C [Example 224, 8-(4-chloro-2-fluorophenyl)-6-((2R,4S)-2-(1-cyclopropyl-1H-pyrazol-4-yl)tetrahydro-2H-pyran-4-yl)-2,3-dimethylpyrido[2,3-b]pyrazine]"
5,50 to 500,"Cc1nc2nc(-c3ccc(Cl)cc3F)cc([C@@H]3CCO[C@@H](c4cnn(C5CC5)c4)C3)c2nc1C [Example 236, 6-(4-chloro-2-fluorophenyl)-8-((2R,4R)-2-(1-cyclopropyl-1H-pyrazol-4-yl)tetrahydro-2H-pyran-4-yl)-2,3-dimethylpyrido[2,3-b]pyrazine]"

# Same assay, conditions: HEK293 cells expressing human TREM2 and DAP12, Table D-2
row,EC50 [nM],Compound
1,< 50,"Cc1cc(F)c(-c2nc([C@H]3CCO[C@@H](c4cnn(C5CC5)c4)C3)nc3nc(C)c(C)nc23)cc1F [Example I-1572, 2-[(2R,4S)-2-(1-cyclopropylpyrazol-4-yl)tetrahydropyran-4-yl]-4-(2,5-difluoro-4-methyl-phenyl)-6,7-dimethyl-pteridine]"
2,< 50,"COc1nc2c(-c3ccc(C(F)(F)F)cc3F)nc([C@H]3CCO[C@@H](c4cnn(C5CC5)c4)C3)nc2nc1C (stereo in doubt) [Example I-1691, 2-((2R,4S)-2-(1-cyclopropyl-1H-pyrazol-4-yl)tetrahydro-2H-pyran-4-yl)-4-(2-fluoro-4-(trifluoromethyl)phenyl)-6-methoxy-7-methylpteridine]"
3,< 50,"Cc1nc2nc(C3CCO[C@@H](c4cnn(C5CC5)c4)C3)nc([C@H]3C[C@H](C(F)(F)F)C3)c2nc1C (stereo partly drawn) [Example I-1432, 2-[(2R)-2-(1-cyclopropylpyrazol-4-yl)tetrahydropyran-4-yl]-6,7-dimethyl-4-[3-(trifluoromethyl)cyclobutyl]pteridine]"
4,< 50,"COc1nc2c(-c3ccc(F)cc3F)nc([C@@H]3CCO[C@H](c4cnn(C5CC5)c4)C3)nc2nc1C (racemic) [Example I-1653, 4-(2,4-difluorophenyl)-6-methoxy-7-methyl-2-[rac-(2R,4S)-2-(1-cyclopropylpyrazol-4-yl)tetrahydropyran-4-yl]pteridine]"
5,< 50,"Cc1nc2nc(N3C[C@@H](C)O[C@@H](c4cnn(C5CC5)c4)C3)nc(-c3cc(C(F)F)c(F)cc3F)c2nc1C (stereo in doubt) [Example I-1706, (2S,6R)-2-(1-cyclopropylpyrazol-4-yl)-4-[4-[5-(difluoromethyl)-2,4-difluoro-phenyl]-6,7-dimethyl-pteridin-2-yl]-6-methyl-morpholine]"
6,50 to 500,"Cc1nc2nc(C3CCS(=O)(=O)N(c4cnn(C5CC5)c4)C3)nc(-c3ccc(Cl)cc3F)c2nc1C (racemic) [Example I-1733, 4-[4-(4-chloro-2-fluoro-phenyl)-6,7-dimethyl-pteridin-2-yl]-2-(1-cyclopropylpyrazol-4-yl)thiazinane 1,1-dioxide]"
7,50 to 500,"Cc1nc2nc([C@H]3CCO[C@@H](c4cnc(C5CC5)o4)C3)nc(-c3ccc(F)cc3F)c2nc1C [Example I-1699, 2-cyclopropyl-5-[(2R,4S)-4-[4-(2,4-difluorophenyl)-6,7-dimethyl-pteridin-2-yl]tetrahydropyran-2-yl]oxazole]"

# The next lines start with the molecule.
row,Compound,EC50 [nM]
1,"Cc1cc([C@@H]2CN(c3nc(-c4ccc(Cl)cc4F)c4nc(C)c(C)nc4n3)CCO2)on1 (stereo in doubt) [Example I-1241, 4-[4-(4-chloro-2-fluoro-phenyl)-6,7-dimethyl-pteridin-2-yl]-2-(3-methylisoxazol-5-yl)morpholine]",< 50
2,"Cc1nc2nc(C3CCO[C@@H](c4cnn(C5CC5)c4)C3)nc([C@H]3C[C@@H](C(F)(F)F)C3)c2nc1C (stereo partly drawn) [Example I-1414, 2-[(2R)-2-(1-cyclopropylpyrazol-4-yl)tetrahydropyran-4-yl]-6,7-dimethyl-4-[3-(trifluoromethyl)cyclobutyl]pteridine]",< 50
3,"Cc1nc2nc([C@H]3CCO[C@@H](c4cnn(C5CC5)c4)C3)nc(-c3ccc(Cl)cc3F)c2nc1OCCF [Example I-1283, 4-(4-chloro-2-fluoro-phenyl)-2-[(2R,4S)-2-(1-cyclopropylpyrazol-4-yl)tetrahydropyran-4-yl]-6-(2-fluoroethoxy)-7-methyl-pteridine]",< 50
